Source: patent US9127035B2, “Compounds for use in the treatment of bacterial infection” (THE ROYAL INSTITUTION FOR THE ADVANCEMENT OF …, priority 2011, dated 2015)
Where two headings read alike, the source gives them in different places.

How the values were obtained:
PanK, PPAT and DPCK = assay: Biosynthetic in vitro assay with a mixture of PanK, PPAT and DPCK enzymes; format: biochemical; settings: substrate 5.0 mM, 3 hours at room temperature; HPLC, approximate ± 5%, duplicate
Experimental: Biosynthetic in vitro assay with a mixture of PanK, PPAT and DPCK enzymes. The E. coli enzymes pantothenate kinase (PanK or coaA enzyme), phosphopantetheine adenylyltransferase (PPAT or coaD enzyme), and dephosphocoenzyme A kinase (DPCK or coaE enzyme) were expressed and purified as previously described [Geerlof A, Lewendon A, Shaw W V J Biol Chem 1999, 274:27105-27111]. Each reaction mixture (500 μL) contained ATP (5.0 mM), KCl (20 mM), MgCl2 (10 mM), DTT (2.0 mM), PanK (5 μg, 278 nM), PPAT (5 μg, 500 nM), DPCK (5 μg, 454 nM) in Tris-Cl Buffer (50 mM, pH 7.6). The reaction was initiated with the addition of pantetheine (5.0 mM) for comparison, water as a negative control, or compounds 3a-e (5.0 mM). Reactions were incubated for 3 hours at room temperature and then stopped by heating the mixture to 95° C. for 5 min. The precipitated protein was removed by centrifugation (13,000 rpm for 5 min) and the supernatant was analyzed by LC/MS. Reversed-phase analytical HPLC was performed with an analytical 4.60×250 mm, SYNERGI 4p Hydro-RP 80A (Phenomenex, Torrance, Calif.) column coupled to an Agilent 6120 Quadrupole LC/MS system for ESI-MS analysis. The HPLC conditions had the sample eluted at a flow rate of 0.5 mL min^−1 using a combination of mobile phase A (H2O) and mobile phase B (acetonitrile), Elution conditions are as follows: isocratic 1% phase B from 0-3 min; followed by the following linear gradients of phase B: 1-10% from 3-5 min; 10-15% from 5-10 min; 15-30% from 10-13 min; an finally isocratic phase B at 30% from 13-26 min. The detector was set to 214 nm. These experiments were run in duplicate.

[1] = target: T1, E. coli pantothenate kinase (PanK or coaA enzyme) (Escherichia coli, UniProt P0A6I3); assay: PanK enzyme assay (Michaelis-Menten kinetics); format: biochemical; settings: transformation by PanK; 25° C., Tris-HCl pH 7.6; triplicate
T1 construct: made in house
T1 sequence (P0A6I3 1-316): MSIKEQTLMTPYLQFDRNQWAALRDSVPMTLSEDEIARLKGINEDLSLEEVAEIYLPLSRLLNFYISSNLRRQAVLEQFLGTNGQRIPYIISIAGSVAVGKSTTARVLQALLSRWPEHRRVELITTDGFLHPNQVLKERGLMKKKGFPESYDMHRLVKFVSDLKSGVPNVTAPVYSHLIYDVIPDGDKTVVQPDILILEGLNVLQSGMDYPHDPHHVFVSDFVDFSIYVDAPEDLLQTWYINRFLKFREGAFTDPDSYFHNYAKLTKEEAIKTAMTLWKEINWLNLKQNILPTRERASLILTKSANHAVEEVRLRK
Experimental: PanK enzyme assay. The E. coli pantothenate kinase (PanK or coaA enzyme) was expressed and purified as previously described. Enzyme activity was measured as described in the literature [Strauss E, Begley T P J Biol Chem, 2002, 277:48205-48209]. This assay couples the production of ADP to the consumption of NADH through the activity of pyruvate kinase and lactic dehydrogenase. The decrease of NADH concentration was monitored at 340 nm. Reactions were performed at 25° C. in an Agilent 8453 UV-Vis spectrophotometer coupled to an Agilent 89090A Peltier temperature controller. Kinetic parameters were determined by fitting the rate data into the Michaelis-Menten equation using Prism 4.0 (GraphPad). Each reaction mixture (500 μL) contained ATP (1.5 mM), NADH (0.3 mM), phosphoenolpyruvate (0.5 mM), MgCl2 (10 mM), KCl (20 mM), pyruvate kinase (5 units), lactic dehydrogenase (5 units), and PanK (5 μg, 278 nM) in Tris-HCl buffer (50 mM, pH 7.6). The reaction was initiated by addition of the desired substrate (10-160 μM). All data points are from triplicate experiments.

[2] = system: Enterococcus faecium ATCC 19434 which expresses AAC(6′)-li naturally; assay: Checkerboard assay, potentiation of kanamycin A on a resistant strain; format: cell-based; settings: for effect on the MIC50 of kanamycin A: compound 512 μg/ml combined with kanamycin A, compared to kanamycin A alone
Experimental: General biological methods. Enterococcus faecium ATCC 19434, Staphylococcus aureus ATCC 29213 and 43300, Acinetobacter baumannii ATCC 19606, Pseudomonas aeruginosa ATCC 27853, Klebsiella penumoniae ATCC 13883, and Escherichia coli ATCC 25922 and 11775 were all purchased from Cedarlane (Burlington, ON). E. faecium was grown in Difco brain heart infusion media (BD, Mississauga, ON), S. aureus and P. aeruginosa were grown in Trypticase soy media (BD, Mississauga, ON), and E. coli, A. baumannii, and K. pneumoniae were grown in Nutrient media (BD, Mississauga, ON). Antibacterial tests were performed using Falcon™ Black with Clear Bottom 96-well Microtest™ Optilux plates (BD, Mississauga, ON).
(§1) Checkerboard assay to determine the synergistic activity of compounds 3a-f with kanamycin A or tobramycin on a resistant strain. A two dimensional checkerboard MIC assay was carried out as previously described [Gao F, Yan X, Shakya T, Baettig O M, Ait-Mohand-Brunet S, Berghuis A M, Wright G D, Auclair K; J Med Chem, 2006, 49:5273-5281] to observe for the potentiation activity of compounds 3a-f towards the antibacterial activity of kanamycin A or tobramycin against Enterococcus faecium ATCC 19434 which expresses AAC(6′)-li naturally, or an E. coli strain engineered to express AAC(6)-li. Compounds 3a-f were diluted by 2-fold sequential dilutions to create a gradient from 32 to 512 μg/mL while the concentrations used for kanamycin A or tobramycin were 0, 10, 20, 40, 50, 100, 150, 200, 250, and 300 μg/mL. The cultures were grown at 37° C. for 16 h in 96-well plates, and then monitored for optical density at 600 nm using a Spectramax 190 microplate reader (Molecular Devices, Sunnyvale, Calif.). Data was normalized against a positive growth control and reported as a percentage of bacterial cell growth. All data points are from quadruplicate experiments.

[3] = system: E. coli (BL21) harbouring AAC(6′)-li resistance gene in pET-22b(+) vector; assay: Checkerboard assay, potentiation of tobramycin on engineered E. coli; format: cell-based; settings: tobramycin combined with compound; E. coli engineered to express AAC(6′)-li
Experimental: as §1

[4] = target: T1, E. coli pantothenate kinase (PanK or coaA enzyme); settings: natural substrates of PanK; literature values (footnotes a, b); cited from earlier work

Row | SMILES | Compounds detected by LC-MS: 6a-e, relative percentage (PanK, PPAT and DPCK) [%] | Compounds detected by LC-MS: 7a-e, relative percentage (PanK, PPAT and DPCK) [%] | effect on the MIC50 of kanamycin A [2] | Compounds detected by LC-MS: 2a-e, relative percentage (PanK, PPAT and DPCK) [%] | also measured
1 | CC(C)(CO)[C@@H](O)C(=O)NCCC(=O)NCCSCC(=O)NC[C@H]1O[C@H](O[C@H]2[C@H](O)[C@@H](O)[C@H](N)C[C@@H]2N)[C@H](N)[C@@H](O)[C@@H]1O [Compound 3a, Neamine 6′-N—(R)-(3-((2-((2-amino-2-oxoethyl)thio)ethyl)amino)-3-oxopropyl)-2,4-dihydroxyl-3,3-dimethylbutanamide] | 5 | 25 | negligible effect |  | Compounds detected by LC-MS: 3a-e (starting material), relative percentage (PanK, PPAT and DPCK): 70%; Km [1]: ≥ 500 µM
2 | CC(C)(CO)[C@@H](O)C(=O)NCCC(=O)NCCSCCC(=O)NC[C@H]1O[C@H](O[C@H]2[C@H](O)[C@@H](O)[C@H](N)C[C@@H]2N)[C@H](N)[C@@H](O)[C@@H]1O [Compound 3b, Neamine 6′-N—(R)-(3-((2-((2-amino-2-oxopropyl)thio)ethyl)amino)-3-oxopropyl)-2,4-dihydroxyl-3,3-dimethylbutanamide] | 20 | 70 |  | 10 | 
3 | CC(C)(CO)[C@@H](O)C(=O)NCCC(=O)NCCSCCCC(=O)NC[C@H]1O[C@H](O[C@H]2[C@H](O)[C@@H](O)[C@H](N)C[C@@H]2N)[C@H](N)[C@@H](O)[C@@H]1O [Compound 3c, Neamine 6′-N—(R)-(3-((2-((2-amino-2-oxobutyl)thio)ethyl)amino)-3-oxopropyl)-2,4-dihydroxyl-3,3-dimethylbutanamide] | 5 | 40 |  | 55 | dose dependence of the potentiation of kanamycin A ([2]; compound 32 to 512 μg/mL with kanamycin A): dose-dependent effect
4 | CC(C)(CO)[C@@H](O)C(=O)NCCC(=O)NCCSCCCCC(=O)NC[C@H]1O[C@H](O[C@H]2[C@H](O)[C@@H](O)[C@H](N)C[C@@H]2N)[C@H](N)[C@@H](O)[C@@H]1O [Compound 3d, Neamine 6′-N—(R)-(3-((2-((2-amino-2-oxopentyl)thio)ethyl)amino)-3-oxopropyl)-2,4-dihydroxyl-3,3-dimethylbutanamide] |  | 10 | drop by half | 90 | reduction in the MIC of tobramycin [3]: 10 fold
5 | CC(C)(CO)[C@@H](O)C(=O)NCCC(=O)NCCSCCCCCC(=O)NC[C@H]1O[C@H](O[C@H]2[C@H](O)[C@@H](O)[C@H](N)C[C@@H]2N)[C@H](N)[C@@H](O)[C@@H]1O [Compound 3e, Neamine 6′-N—(R)-(3-((2-((2-amino-2-oxohexyl)thio)ethyl)amino)-3-oxopropyl)-2,4-dihydroxyl-3,3-dimethylbutanamide] |  | 20 | drop by half | 80 | 
6 | CC(C)(CO)[C@@H](O)C(=O)NCCC(=O)NCCS [Pantetheine] |  |  |  |  | kcat [4]: 0.32 ± 0.02^b sec^−1
7 | CC(C)(CO)[C@@H](O)C(=O)NCCC(=O)O [Pantothenic acid] |  |  |  |  | Km [4]: 17 ± 2 µM; kcat [4]: 1.07 ± 0.04^a sec^−1
8 | NC[C@H]1O[C@H](O[C@H]2[C@H](O)[C@@H](O[C@H]3O[C@H](CO)[C@@H](O)[C@H](N)[C@H]3O)[C@H](N)C[C@@H]2N)[C@H](O)[C@@H](O)[C@@H]1O [kanamycin A, reference compound] |  |  |  |  | MIC50 of kanamycin A (minimum concentration causing a 50% growth inhibition) ([2]; kanamycin A alone, in the absence of compounds 3a-e): ~125 µg/mL
